# Reference: US20100137346A1, “DESFE[…] ACTINIDE DEC[…]” (priority 2006, published 2010)
# Experiments:
# [1] = iron-overloaded C. apella primate; cited from earlier work
# [2] = Chelator-induced uranium excretion (urine + bile, 24 h) in bile duct-cannulated rat model; type: in vivo
# Experimental: (§1) Desferrithiocin Analogue Induced Excretion of Uranium. In order to compare results with previous chelator-induced iron excretion data, the uranium clearance studies were carried out in a bile duct-cannulated rat model. The animals were given uranyl acetate dihydrate SC at a dose of 5 mg/kg (the actual dose of uranium is 2.8 mg/kg). Bile and urine samples were collected for 24 hours after dosing. Kidneys were removed from selected animals and tissue uranium concentration measured. At least three animals were utilized in each experimental group. Data from two separate control studies (uranyl acetate/ no chelator) have now been combined for a total of 14 control animals. All uranium concentrations were measured using ICPMS. The data are reported as the total quantity of uranium excreted [urine +bile]; the mode of excretion [urine/bile] is also given. In addition the percentage of the administered dose of uranium cleared and chelator-induced uranium excretion vs the controls is also given. Four positive controls were evaluated: DTPA (13, Table 1) given as its trisodium calcium salt, DFO (14), N,N′-bis(2hydroxybenzyl)ethylenediamine-N,N′-diacetic acid, monosodium salt (NaHBED, 15) and the hydroxypyridone CP94 (16) shown to bind uranium [Pashalidis, et al., Effective complex formation in the interaction of 1,2-dimethyl-3-hydroxypyrid-4-one (Deferiprone or L1) with uranium(VI), Journal of Radioanalytical and Nuclear Chemistry 1999; 242:181-184.] The total metal cleared after 24 h in control rats was 10% of the administered dose. When DTPA, 13, was given IP or PO at 300 μmol/kg immediately after uranium, the excretion was 17% and 8% of the administered dose respectively (p>0.05). However, when the drug was given IP at a dose of 600 μmol/kg immediately post-metal, the uranium excretion was significant, 20% (p<0.005). This is consistent with previously published data using a similar animal model.[Domingo, et al., Comparative effects of the chelators sodium 4,5-dihydroxybenzene-1,3-disulfonate (Tiron) and diethylenetriaminepentaacetic acid (DTPA) on acute uranium nephrotoxicity in rats, Toxicology 1997; 118:49-59] DFO (14) and CP94 (16) given IP immediately post uranyl acetate were ineffective.
# Desferrithiocin Analogue-Induced Excretion of Uranium. In order to compare results with previous chelator-induced iron excretion data, the uranium clearance studies were carried out in a bile duct-cannulated rat model. The animals were given uranyl acetate dihydrate SC at a dose of 5 mg/kg (the actual dose of uranium is 2.8 mg/kg). Bile and urine samples were collected for 24 hours after dosing. Kidneys were removed from selected animals and tissue uranium concentration measured. At least three animals were utilized in each experimental group. Data from two separate control studies (uranyl acetate/ no chelator) are combined for a total of 14 control animals. All uranium concentrations were measured using ICPMS. The data are reported as the total quantity of uranium excreted [urine +bile]; the mode of excretion [urine/bile] is also given. In addition the percentage of the administered dose of uranium cleared and chelator-induced uranium excretion vs the controls is also given. Four positive controls were evaluated: DTPA (1, Table 1) given as its trisodium calcium salt, DFO (2), N,N -bis(2-hydroxybenzyl)ethylenediamine-N,N-diacetic acid, monosodium salt (NaHBED, 3) and the hydroxypyridone CP94 (4) shown to bind uranium. The total metal cleared after 24 h in control rats was 10% of the administered dose. When DTPA, 1, was given IP or PO at 300 μmol/kg immediately after uranium, the excretion was 17% and 8% of the administered dose respectively (p>0.05). However, when the drug was given IP at a dose of 600 μmol/kg immediately post metal, the uranium excretion was significant, 20% (p<0.005). This is consistent with previously published data using a similar animal model.^2 DFO (2) and CP94 (4) given IP immediately post uranyl acetate were ineffective.
# [3] = Renal uranium content in uranyl acetate-treated bile duct-cannulated rats (FIG. 3); type: in vivo, rat
# Experimental: as §1
# The most promising analogue in the (S)-2-(2,4-dihydroxyphenyl)-4,5-dihydro-4-thiazolinecarboxylic series is the methoxy analogue (S)-4′-(CH3O)-DADMDFT (11). Given IP at 300 μmol/kg 0.5 h before uranyl acetate or immediately thereafter, nearly 30% of the metal was cleared (Table 1). This was also true if the drug was given IP 0.5 or 2 h post metal. The drug retains some efficacy given 4 h post uranium; 16% of the metal is excreted (p<0.006). When the chelator was given SC immediately post uranium, 40% of the administered metal was cleared. The increased excretion is probably associated with a slower absorption of the ligand. The data from rodents given the drug orally is even more encouraging (Table 1). […] The most profound data are associated with uranium decorporation from the kidneys (FIG. 3). When DTPA is given IP or PO at a dose of 300 μmol/kg immediately post metal, there is no reduction in renal uranium relative to controls. However, (S)-4′-(CH3O)-DADMDFT (11) given orally at a dose of 300 μmol/kg immediately post metal reduces renal uranium by 37% (p<0.005).
# There is a small (16%) reduction when the drug is given PO at a dose of 300 μmol/kg 2 h post uranium. However, when 11 is given PO at a dose of 600 μmol/kg 0.5 h post metal, the renal uranium content is reduced by 76% (p<0.001). When given PO at the same dose 1 h post uranium exposure, the reduction is still significant, 42% (p<0.006). In all sets of ligands, the most lipophilic chelator is always the most toxic. […] On the basis of this finding, a less lipophilic, more water-soluble ligand than 12 was assembled, (S)-4′-(HO)-DADFT-PE (18, Table 1), a polyether analogue.
compound,measurement,setting,value
"O=C(O)[C@H]1CSC(c2ncccc2O)=N1 [Compound 2, (S)-4,5-dihydro-2-(3-hydroxy-2-pyridinyl)-4-thiazolecarboxylic acid]",ICE,[1],4.8%
"O=C(O)CN(CCN(CC(=O)O)CC(=O)O)CCN(CC(=O)O)CC(=O)O [DTPA, diethylenetriaminepentaacetic acid, reference compound]",% of Administered Dose Cleared,[2]; 300 μmol/kg IP Immediate,17%
same,% of Administered Dose Cleared,[2]; 300 μmol/kg PO Immediate,8%
same,% of Administered Dose Cleared,[2]; 600 μmol/kg IP Immediate,20%
same,reduction in renal uranium relative to controls,[3]; IP 300 μmol/kg immediately post metal,no reduction
same,reduction in renal uranium relative to controls,[3]; PO 300 μmol/kg immediately post metal,no reduction
C[C@@]1(C(=O)O)CSC(c2ccc(O)cc2O)=N1 [drawing 10],% of Administered Dose Cleared,[2]; 300 μmol/kg IP Immediate,19%
same,Uranium Excretion,[2]; 300 μmol/kg IP Immediate,523 ± 180 µg/kg
same,Uranium Excretion [urine/bite],[2]; 300 μmol/kg IP Immediate,92/8
same,response vs control in vivo at 300 µmol/kg,"[2]; Rattus norvegicus, ip, 24 h, 300 μmol/kg IP Immediate, read-out: Chelator-Induced U Excretion/Control",190%
COc1ccc(C2=N[C@@H](C(=O)O)CS2)c(O)c1 [drawing 12],% of Administered Dose Cleared,[2]; 300 μmol/kg IP 0.5 h Post,33%
same,Chelator-Induced U Excretion/Control,[2]; 300 μmol/kg IP 0.5 h Post,3.3
same,Uranium Excretion,[2]; 300 μmol/kg IP 0.5 h Post,917 ± 177 µg/kg
same,Uranium Excretion [urine/bite],[2]; 300 μmol/kg IP 0.5 h Post,[16/84]
same,% of Administered Dose Cleared,[2]; 300 μmol/kg IP 0.5 h Pre,29%
same,Chelator-Induced U Excretion/Control,[2]; 300 μmol/kg IP 0.5 h Pre,2.9
same,Uranium Excretion,[2]; 300 μmol/kg IP 0.5 h Pre,815 ± 211 µg/kg
same,Uranium Excretion [urine/bite],[2]; 300 μmol/kg IP 0.5 h Pre,48/52
same,% of Administered Dose Cleared,[2]; 300 μmol/kg IP 2 h Post,30%
same,Chelator-Induced U Excretion/Control,[2]; 300 μmol/kg IP 2 h Post,3.0
same,Uranium Excretion,[2]; 300 μmol/kg IP 2 h Post,847 ± 335 µg/kg
same,Uranium Excretion [urine/bite],[2]; 300 μmol/kg IP 2 h Post,[46/54]
same,% of Administered Dose Cleared,[2]; 300 μmol/kg IP 4 h Post,16%
same,Chelator-Induced U Excretion/Control,[2]; 300 μmol/kg IP 4 h Post,1.6
same,Uranium Excretion,[2]; 300 μmol/kg IP 4 h Post,444 ± 119 µg/kg
same,Uranium Excretion [urine/bite],[2]; 300 μmol/kg IP 4 h Post,[66/34]
same,% of Administered Dose Cleared,[2]; 300 μmol/kg IP Immediate,30%
same,Chelator-Induced U Excretion/Control,[2]; 300 μmol/kg IP Immediate,3.0
same,Uranium Excretion,[2]; 300 μmol/kg IP Immediate,838 ± 166 µg/kg
same,Uranium Excretion [urine/bite],[2]; 300 μmol/kg IP Immediate,[64/36]
same,% of Administered Dose Cleared,[2]; 300 μmol/kg PO 2 h Post,18%
same,Chelator-Induced U Excretion/Control,[2]; 300 μmol/kg PO 2 h Post,1.8
same,Uranium Excretion,[2]; 300 μmol/kg PO 2 h Post,507 ± 182 µg/kg
same,Uranium Excretion [urine/bite],[2]; 300 μmol/kg PO 2 h Post,[53/47]
same,% of Administered Dose Cleared,[2]; 300 μmol/kg PO Immediate,23%
same,Chelator-Induced U Excretion/Control,[2]; 300 μmol/kg PO Immediate,2.3
same,Uranium Excretion,[2]; 300 μmol/kg PO Immediate,642 ± 101 µg/kg
same,Uranium Excretion [urine/bite],[2]; 300 μmol/kg PO Immediate,[43/57]
same,% of Administered Dose Cleared,[2]; 300 μmol/kg SC Immediate,40%
same,Chelator-Induced U Excretion/Control,[2]; 300 μmol/kg SC Immediate,4.0
same,Uranium Excretion,[2]; 300 μmol/kg SC Immediate,1130 ± 245 µg/kg
same,Uranium Excretion [urine/bite],[2]; 300 μmol/kg SC Immediate,[13/87]
same,% of Administered Dose Cleared,[2]; 600 μmol/kg PO 0.5 h Post,25%
same,Chelator-Induced U Excretion/Control,[2]; 600 μmol/kg PO 0.5 h Post,2.5
same,Uranium Excretion,[2]; 600 μmol/kg PO 0.5 h Post,698 ± 166 µg/kg
same,Uranium Excretion [urine/bite],[2]; 600 μmol/kg PO 0.5 h Post,[24/76]
same,% of Administered Dose Cleared,[2]; 600 μmol/kg PO 1 h Post,26%
same,Chelator-Induced U Excretion/Control,[2]; 600 μmol/kg PO 1 h Post,2.6
same,Uranium Excretion,[2]; 600 μmol/kg PO 1 h Post,723 ± 128 µg/kg
same,Uranium Excretion [urine/bite],[2]; 600 μmol/kg PO 1 h Post,[28/72]
C[C@@]1(C(=O)O)CSC(c2ccc(O)cc2O)=N1 [drawing 13],% of Administered Dose Cleared,[2]; 300 μmol/kg IP Immediate,19%
O=C(O)CN(CCN(CC(=O)O)CC(=O)O)CCN(CC(=O)O)CC(=O)O [drawing 16],% of Administered Dose Cleared,[2]; 300 μmol/kg IP Immediate,17%
same,Chelator-Induced U Excretion/Control,[2]; 300 μmol/kg IP Immediate,1.7
same,Uranium Excretion,[2]; 300 μmol/kg IP Immediate,469 ± 271 µg/kg
same,Uranium Excretion [urine/bite],[2]; 300 μmol/kg IP Immediate,99/1
same,% of Administered Dose Cleared,[2]; 300 μmol/kg PO Immediate,8%
same,Chelator-Induced U Excretion/Control,[2]; 300 μmol/kg PO Immediate,0.8
same,Uranium Excretion,[2]; 300 μmol/kg PO Immediate,235 ± 205 µg/kg
same,Uranium Excretion [urine/bite],[2]; 300 μmol/kg PO Immediate,100/0
same,% of Administered Dose Cleared,[2]; 600 μmol/kg IP Immediate,20%
same,Chelator-Induced U Excretion/Control,[2]; 600 μmol/kg IP Immediate,2.0
same,Uranium Excretion,[2]; 600 μmol/kg IP Immediate,548 ± 147 µg/kg
same,Uranium Excretion [urine/bite],[2]; 600 μmol/kg IP Immediate,100/0
